ChEMBL document CHEMBL1201862, “PubChem BioAssay data set” (2004)
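96-well plates; 48 h exposure; 5 concentrations. Endpoints by linear interpolation between flanking doses. Not reached: highest tested concentration assigned. Here, GI50 denotes the concentration required for 50% inhibition of growth.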 The source made the active and inactive calls. No stated cut-off is given here; in the data, active = GI50 up to about 1.1 µM and inactive = higher.

Key:
Assay in all cases: growth of human tumour cells (NCI), 48 h
[1] = system: NCI-H460
[2] = system: EKVX
[3] = system: ACHN
[4] = system: SNB-19
[5] = system: SK-MEL-5
[6] = system: NCI-H23
[7] = system: COLO 205
[8] = system: U-251
[9] = system: HOP-92
[10] = system: M14
[11] = system: SNB-75
[12] = system: SR
[13] = system: SN12C
[14] = system: KM12
[15] = system: LOX IMVI
[16] = system: A498

Structure (SMILES) | GI50 [1] | GI50 [2] | GI50 [3] | GI50 [4] | GI50 [5] | GI50 [6] | GI50 [7] | GI50 [8] | GI50 [9] | GI50 [10] | GI50 [11] | GI50 [12] | GI50 [13] | GI50 [14] | GI50 [15] | GI50 [16]
Cc1ccc2nc3c(Cl)cc(=O)cc-3sc2c1 | 29.4 µM (inactive) | 22.2 µM (inactive) | 23.3 µM (inactive) | > 10 µM (inactive) | 17.1 µM (inactive) | > 10 µM (inactive) | 18.7 µM (inactive) | 20.7 µM (inactive) | 21.8 µM (inactive) | 22.1 µM (inactive) | 21.5 µM (inactive) | > 10 µM (inactive) | > 10 µM (inactive) | > 10 µM (inactive) |  | 
N=C(CC(=O)Nc1ccc(Cl)cc1)Nc1ccccc1 | > 100 µM (inactive) | > 100 µM (inactive) | > 100 µM (inactive) | > 100 µM (inactive) | > 100 µM (inactive) | > 100 µM (inactive) | > 100 µM (inactive) | > 100 µM (inactive) |  | > 100 µM (inactive) | > 100 µM (inactive) | > 100 µM (inactive) | > 100 µM (inactive) | > 100 µM (inactive) | > 100 µM (inactive) | > 100 µM (inactive)
COc1cc2ccnc(-c3c4ccccc4c(N)c4c(OC)c(OC)ccc34)c2cc1OC | 1.79 µM (inactive) | 10.4 µM (inactive) | 3.54 µM (inactive) | 2.85 µM (inactive) | 3.27 µM (inactive) | 3.21 µM (inactive) | 1.58 µM (inactive) | 3.37 µM (inactive) | 1.79 µM (inactive) |  |  | 1.8 µM (inactive) | 3.47 µM (inactive) | 2.38 µM (inactive) | 1.52 µM (inactive) | 3.02 µM (inactive)
CC(=O)OC1(C)C(=O)OC1(C)C(C)=O (stereo not drawn) |  | > 100 µM (inactive) | > 100 µM (inactive) | > 100 µM (inactive) | > 100 µM (inactive) | > 100 µM (inactive) | > 100 µM (inactive) | > 100 µM (inactive) | > 100 µM (inactive) | > 100 µM (inactive) | > 100 µM (inactive) |  | > 100 µM (inactive) | > 100 µM (inactive) | > 100 µM (inactive) | > 100 µM (inactive)
CCOc1ccccc1NC(=O)CSc1nnc(Cc2ccccc2)o1 | 20.2 µM (inactive) |  | 22.5 µM (inactive) | 24 µM (inactive) | 19.3 µM (inactive) | 17.2 µM (inactive) | 20.6 µM (inactive) | 20.2 µM (inactive) |  | 21.9 µM (inactive) | 56.1 µM (inactive) |  | 26 µM (inactive) | 40.3 µM (inactive) | 15.5 µM (inactive) | 66.7 µM (inactive)
CCn1c(=O)nc2n(-c3ccc(SC)cc3)c3ccccc3nc-2c1=O | 20.9 µM (inactive) | > 100 µM (inactive) | 1.87 µM (inactive) | > 100 µM (inactive) | 9.42 µM (inactive) | > 100 µM (inactive) | 8.15 µM (inactive) | > 100 µM (inactive) | > 100 µM (inactive) | > 100 µM (inactive) | 76 µM (inactive) |  | > 100 µM (inactive) | > 100 µM (inactive) |  | > 100 µM (inactive)
COc1cc(C(=O)C/C(CCC(=O)Nc2ccccc2[N+](=O)[O-])=N\NC(=O)C(N)=O)ccc1O | > 100 µM (inactive) | > 100 µM (inactive) | > 100 µM (inactive) | > 100 µM (inactive) |  | > 100 µM (inactive) | > 100 µM (inactive) | > 100 µM (inactive) | 65.3 µM (inactive) | > 100 µM (inactive) |  | > 100 µM (inactive) |  | > 100 µM (inactive) | > 100 µM (inactive) | 
COc1cccc(C(=O)C2C(=O)N(C)CCc3ccccc32)c1OC (stereo not drawn) | > 100 µM (inactive) |  | > 100 µM (inactive) | > 100 µM (inactive) | > 100 µM (inactive) | > 100 µM (inactive) | > 100 µM (inactive) | > 100 µM (inactive) | > 100 µM (inactive) | > 100 µM (inactive) | > 100 µM (inactive) |  | > 100 µM (inactive) | > 100 µM (inactive) | > 100 µM (inactive) | > 100 µM (inactive)
CCCCCCCCCCCc1nnc(N)o1 | > 100 µM (inactive) |  | > 100 µM (inactive) | 18.9 µM (inactive) |  | > 100 µM (inactive) | > 100 µM (inactive) | > 100 µM (inactive) | > 100 µM (inactive) | > 100 µM (inactive) | > 100 µM (inactive) | > 10 µM (inactive) | > 100 µM (inactive) | > 100 µM (inactive) | > 100 µM (inactive) | 
COc1ccc(-c2csc(=[N+]3CCCCC3)s2)cc1 | 3.71 µM (inactive) | 6.76 µM (inactive) | 9.44 µM (inactive) | 1.67 µM (inactive) | 1.87 µM (inactive) | 1.63 µM (inactive) | 1.49 µM (inactive) | 0.743 µM (active) | 2.38 µM (inactive) | 10.9 µM (inactive) | 1.23 µM (inactive) | 2.26 µM (inactive) | 3.61 µM (inactive) | 2.36 µM (inactive) | 4.83 µM (inactive) | 
